Assay results from patent US11857567B2, “Hypertonic pharmaceutical compositions containing an anti-platinum chemoprotectant agent” (Decibel Therapeutics, Inc., priority 2018, dated 2024).

Tested on: cisplatin-induced hearing loss in guinea pigs
Assay: Hearing protection by locally delivered STS Composition from cisplatin challenge (ABR)
Format: in vivo, guinea pig
Conditions: at both 24 kHz and 32 kHz
Description: Historical ABR data were used to define a baseline. The animals were anesthetized with tiletamine hydrochloride and zolazepam hydrochloride (Zoletil). Acoustic stimuli were delivered via an earphone. Needle electrodes were placed near the ear canal at the causoventral position, the vertex of the skull, and a ground at the lower leg. The stimulus level was from 10 to 90 dB in 5 dB steps, and the tone-pip frequencies were 4, 24, and 32 kHz. The ceiling sound pressure level was 90 dB. ABR threshold was observed by visual inspection of stacked waveforms as the lowest sound pressure level, at which the waveform was above the noise floor.
An aqueous composition of 0.5M sodium thiosulfate/2% (w/v) hyaluronan (STS Composition) or vehicle was dosed intratympanically onto the round window in the left ear (LE) as described above, and the right ear (RE) was left untreated in the guinea pigs (FIG. 5).
Because of heterogeneity of hearing loss after cisplatin challenge, the untreated right ears was used to select the animals with hearing loss. There were 21 animals with right ear threshold >60 dB at 32 kHz. Of these 21 animals, 3 with otitis media were excluded, leaving 18 animals for the final analysis. 10 animals were dosed with vehicle and 8 animals were dosed with STS Composition (FIG. 4B). […]

## O=S([O-])([O-])=S.[Na+].[Na+] [sodium thiosulfate]
  protection (on average): 80%
